Results as given in US11739194B2, “Glycerol-silicone elastomers as active matrices with controllable release profiles” (Danmarks Tekniske Universitet, priority 2017, dated 2023).

What was measured:
[1] = Hydroquinone release from single compartment glycerol-silicone elastomers immersed in deionized water (UV-vis); format: physicochemical; details: hydroquinone alone (single glycerol phase), 80 phr total glycerol concentration
Method: The example provided leads to a 1.42 g batch of material that may readily be scaled up or down. Using the described method batches from between 1 g and 80 g were prepared. Hydroquinone (HQ, 0.02 g, 5 wt. %) was dissolved in glycerol (0.4 g) at 50° C. using magnetic stirring until a clear solution was obtained (typically around 1-2 hours). […] Sample nomenclature uses the pattern GX HQY S184 Z, where G and X correspond to glycerol and concentration of glycerol in phr (weight parts per hundred weight parts of silicone elastomer), HQ and Y correspond to hydroquinone and concentration of hydroquinone dissolved in glycerol (expressed as weight percentage of HQ in glycerol) and S184 corresponds to applied silicone composition, respectively. […]
Release profiles of HQ from the glycerol-silicone elastomers were determined by immersing composites containing various amounts of glycerol with 5 wt % of HQ in deionized water. The progress of hydroquinone release was monitored by measuring changes in concentration of hydroquinone in the aqueous environment. A UV-vis spectrophotometer POLARstar Omega microplate reader by BMG LabTech was used for the tests, and outcomes were compared against a calibration curve for hydroquinone/water solutions. […]

[2] = Erythrosine B and hydroquinone release from dual compartment glycerol-silicone elastomer immersed in deionized water (UV-vis); format: physicochemical; details: for release kinetics (order): dual compartment elastomer, 80 phr total glycerol concentration
Method: For the present experiment two solutions were prepared—glycerol-erythrosine B and glycerol-hydroquinone solutions. Glycerol-erythrosine B solution contained 4 g of glycerol and 0.04 g of erythrosine B. Glycerol-hydroquinone solution contained 4 g of glycerol and 0.2 g of hydroquinone. Single emulsions were prepared as detailed above and were subsequently used to prepare two distinct glycerol-in-silicone emulsions. The glycerol-erythrosine B and glycerol-hydroquinone solutions were each added to 5 g of a silicone prepolymer in respective, separate containers. In this case, Sylgard 184 silicone kit from Dow Corning was applied. The respective mixtures were subsequently speed-mixed for 2 to 5 minutes using a dual asymmetric centrifuge DAC SpeedMixer. To prepare the dual compartment silicone elastomers, the two glycerol-in-silicone emulsions were combined. Desired amounts of each of the emulsions were placed into a speed-mixing cup. The composition was subsequently speed-mixed at low mixing rates (typically between from 500 to 1000 rpm) for around 1 minute in order to uniformly distribute both types of droplets within the silicone matrix. Stable emulsions can be mixed with any given speed. […] After combining and mixing both single emulsions a dual compartment emulsion was obtained. The emulsion contained 10 g of silicone, 4.04 g of glycerol droplets containing erythrosine B and 4.2 g of glycerol droplets containing hydroquinone. The total mass of the emulsion was 18.24 g. In a final step, the elastomer emulsions were cured at 80° C. for 1 hour. Long exposure to high temperatures results in glycerol evaporation therefore prolonged high temperature curing should be avoided. […] Release profiles of erythrosine and hydroquinone from the glycerol-silicone elastomers were determined by immersing composites in deionized water. The progress of release of erythrosine B and hydroquinone was monitored by measuring changes in concentration of both compounds in the aqueous environment. […] Each release profile curve represents an average of three separate experiments. Films with thickness of 0.3 mm were investigated. Such thin films tend to self-adhere therefore they were mounted onto custom-made frames (FIG. 4) to maintain a constant exposed surface area and placed in beakers equipped with magnetic stirring.

For `Oc1ccc(O)cc1` [hydroquinone], which “release kinetics (order)” value [1] is on record?
The value was “near-zero order release kinetics”.

And the “time after which the entire incorporated amount was released” value ([2]; 0.3 mm thick dual compartment elastomer, 40 phr glycerol with erythrosine B + 40 phr glycerol with hydroquinone)?
The value was “around 6 hours”.

What about the “share of the total amount released with zero-order kinetics” value ([2]; 0.3 mm thick dual compartment elastomer, 80 phr glycerol in total) of the same compound?
Its value is ~80%.

What about the “release kinetics (order)” value [2] of the same compound?
Its value is “zero-order release kinetics”.

Which amount released ([2]; after 28 hours, 0.3 mm thick dual compartment elastomer, 80 phr glycerol in total) does the source give for erythrosine B here?
The amount released was 15%.

What about the “release kinetics (order)” value [2] of the same compound?
Its value is “zero-order kinetics throughout the whole experiment”.
